# PubChem BioAssay AID2021 (NMMLSC, 2009)
# pEC50, pKi: −log10 of the molar value. The source made the active and inactive calls. How the calls were made is not given here.
# Target: Cell division control protein 42 homolog (Homo sapiens) (UniProt P60953)
# Test: Cdc42 activated mutant GTP-binding inhibitors, SAR follow-up, biochemical, bead-based multiplex flow cytometry, additional SAR set (AID 2021)
# Settings: fluorescent GTP binding; for pKi: measured here: Ki derived from EC50
# Chain of Cell division control protein 42 homolog (Homo sapiens) (P60953 whole entry, looked up): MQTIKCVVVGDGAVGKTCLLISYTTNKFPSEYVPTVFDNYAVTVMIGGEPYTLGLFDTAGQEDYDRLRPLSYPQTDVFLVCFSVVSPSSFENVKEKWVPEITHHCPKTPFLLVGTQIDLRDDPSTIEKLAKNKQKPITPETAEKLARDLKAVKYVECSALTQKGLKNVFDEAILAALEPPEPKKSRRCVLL
SMILES,EC50,pKi,pEC50
N#Cc1ccc(C(=O)C#Cc2ccccc2)cc1,> 30 µM (inactive),,
CC(C(=O)O)c1cccc(Oc2ccccc2)c1 (stereo not given),> 30 µM (inactive),,
COc1ccc(-c2c(C#N)c(N)n(S(C)(=O)=O)c2C(=O)c2ccccc2)cc1Br,inactive,5.54,
COC(=O)c1ccc(C(=O)C#Cc2ccccc2)cc1,> 30 µM (inactive),,
O=[N+]([O-])c1ccc(C#Cc2ccccc2)cc1,,5.67,4.86
O=C1C(c2c(O)[nH]c3c(Br)cccc23)=Nc2ccccc21,> 30 µM (inactive),,
CC(C(=O)O)c1cccc(C(=O)c2ccccc2)c1 (stereo not given),> 30 µM (inactive),,
O=C(C#Cc1ccccc1)c1ccc(Cl)cc1,> 30 µM (inactive),,
O=C1Nc2c(Br)cccc2/C1=C1/Cc2ccccc2C1=O,> 30 µM (inactive),,
O=Nc1c(-c2c(O)[nH]c3ccc(Br)cc23)[nH]c2ccccc12,> 30 µM (inactive),,
COc1ccc(S(=O)(=O)n2c(N)c(C#N)c(-c3cc(Br)c(OC)c(OC)c3)c2C(=O)c2ccccc2)cc1,> 30 µM (inactive),,
CC(C)Cc1ccc([C@H](C)C(=O)O)cc1,inactive,6.00,
O=C1C(c2c(O)[nH]c3ccc(Br)cc23)=Nc2ccccc21,> 30 µM (inactive),,
O=C(C#Cc1ccccc1)c1ccc(F)cc1,inactive,5.04,
O=Nc1c(-c2c(O)[nH]c3c(F)cccc23)[nH]c2ccccc12,> 30 µM (inactive),,
CSc1ccc(/C=C2/C(C)=C(CC(=O)O)c3cc(F)ccc32)cc1,inactive,5.12,
O=Nc1c(-c2c(O)[nH]c3c(Br)cccc23)[nH]c2ccccc12,inactive,5.07,
O=C1C(c2c(O)[nH]c3c(Cl)cccc23)=Nc2ccccc21,> 30 µM (inactive),,
O=C1N=c2ccccc2=C1c1[nH]c(=O)[nH]c1O,inactive,6.09,
O=C(C#Cc1ccccc1)c1ccc([N+](=O)[O-])cc1,> 30 µM (inactive),,

SMILES,EC50,pKi,pEC50
N#Cc1c(-c2ccc(Cl)cc2)c(C(=O)c2ccccc2)n(S(=O)(=O)c2ccc([N+](=O)[O-])cc2)c1N,inactive,6.03,
CC1=C(CC(=O)O)c2cc(F)ccc2/C1=C/c1ccc(S(C)=O)cc1 (stereo not given),> 30 µM (inactive),,
COc1ccc(S(=O)(=O)n2c(N)c(C#N)c(-c3ccccc3)c2C(=O)c2ccc(Br)cc2)cc1,> 30 µM (inactive),,
O=Nc1c(-c2c(O)[nH]c3c(Cl)cccc23)[nH]c2ccccc12,> 30 µM (inactive),,
O=C(C#Cc1ccccc1)c1cccnc1,> 30 µM (inactive),,
COc1ccc2cc(CC(=O)O)ccc2c1,> 30 µM (inactive),,
CCCCS(=O)(=O)n1c(N)c(C#N)c(-c2cc(OC)c(OC)c(OC)c2)c1C(=O)c1ccccc1,inactive,5.54,
COc1cc(-c2c(C#N)c(N)n(S(=O)(=O)c3c(C(C)C)cc(C(C)C)cc3C(C)C)c2C(=O)c2ccccc2)cc(OC)c1OC,> 30 µM (inactive),,
COc1ccc(C(=O)C#Cc2ccccc2)cc1,> 30 µM (inactive),,
O=C1Nc2ccccc2/C1=C1/Cc2ccccc2C1=O,> 30 µM (inactive),,
COc1ccc(S(=O)(=O)n2c(N)c(C#N)c(-c3cncc(Br)c3)c2C(=O)c2ccccc2)cc1,,5.81,5.00
O=C1Nc2cccc(Br)c2/C1=C1/Cc2ccccc2C1=O,> 30 µM (inactive),,
O=C1N=c2ccccc2=C1c1[nH]c(=S)[nH]c1O,> 30 µM (inactive),,
O=C1C(c2c(O)[nH]c3ccccc23)=Nc2ccccc21,> 30 µM (inactive),,
CC(=O)Oc1ccccc1C(=O)O,> 30 µM (inactive),,
O=C(C#Cc1ccccc1)c1ccc(OC(F)(F)F)cc1,> 30 µM (inactive),,
O=Nc1c(-c2c(O)[nH]c3ccccc23)[nH]c2ccccc12,> 30 µM (inactive),,
O=C(C#Cc1ccccc1)c1ccccc1,> 30 µM (inactive),,
O=C1C(c2c(O)[nH]c3c(F)cccc23)=Nc2ccccc21,> 30 µM (inactive),,
O=C(C#Cc1ccccc1)c1ccccc1[N+](=O)[O-],> 30 µM (inactive),,
